Source: PubChem BioAssay (NCI)
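In this assay, cells in 96-well plates receive the compound at five concentrations for 48 hours. Endpoints are linearly interpolated between the surrounding concentrations. TGI: total growth inhibition.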

Key:
Test in all cases: growth of human tumour cells (NCI), 48 h
ACHN renal = tested on: ACHN renal
DU-145 prostate = tested on: DU-145 prostate
IGROV1 ovarian = tested on: IGROV1 ovarian
LOX IMVI melanoma = tested on: LOX IMVI melanoma
M14 melanoma = tested on: M14 melanoma
MDA-MB-231 breast = tested on: MDA-MB-231 breast
MDA-N = tested on: MDA-N
OVCAR-3 ovarian = tested on: OVCAR-3 ovarian
OVCAR-5 ovarian = tested on: OVCAR-5 ovarian
PC-3 prostate = tested on: PC-3 prostate
SF-295 CNS = tested on: SF-295 CNS
SK-MEL-2 melanoma = tested on: SK-MEL-2 melanoma
SK-MEL-28 melanoma = tested on: SK-MEL-28 melanoma
SK-OV-3 ovarian = tested on: SK-OV-3 ovarian
T-47D breast = tested on: T-47D breast
U251 CNS = tested on: U251 CNS
UACC-257 melanoma = tested on: UACC-257 melanoma
UACC-62 melanoma = tested on: UACC-62 melanoma
DLD-1 colon = tested on: DLD-1 colon
DMS 273 small cell lung = tested on: DMS 273 small cell lung

Row | Compound | TGI (ACHN renal) [µM] | TGI (DU-145 prostate) [µM] | TGI (IGROV1 ovarian) [µM] | TGI (LOX IMVI melanoma) [µM] | TGI (M14 melanoma) [µM] | TGI (MDA-MB-231 breast) [µM] | TGI (MDA-N) [µM] | TGI (OVCAR-3 ovarian) [µM] | TGI (OVCAR-5 ovarian) [µM] | TGI (PC-3 prostate) [µM] | TGI (SF-295 CNS) [µM] | TGI (SK-MEL-2 melanoma) [µM] | TGI (SK-MEL-28 melanoma) [µM] | TGI (SK-OV-3 ovarian) [µM] | TGI (T-47D breast) [µM] | TGI (U251 CNS) [µM] | TGI (UACC-257 melanoma) [µM] | TGI (UACC-62 melanoma) [µM] | TGI (DLD-1 colon) [µM] | TGI (DMS 273 small cell lung) [µM]
1 | O/N=C\c1cc(O)c(O)c(/C=N/O)c1 | 80.3 | > 100 | > 100 | > 100 | > 100 | > 100 | > 100 | > 100 | > 100 | > 100 | > 100 | > 100 | > 100 | > 100 | > 100 | > 100 | > 100 | > 100 |  | 
2 | CN1OC(=O)N(C)C1c1ccccc1 (configuration not stated) |  |  | > 100 | > 100 |  |  |  | > 100 | > 100 |  | > 100 | > 100 | > 100 | > 100 |  | > 100 | > 100 | > 100 | > 100 | > 100
3 | CNC(=O)CN1CC(=O)N(C)C(=O)C1 |  |  | > 100 | > 100 | > 100 |  |  | > 100 | > 100 |  |  | > 100 | > 100 | > 100 |  | > 100 |  | > 100 | > 100 | > 100
4 | COc1ccc2c(c1)c1cc(OC)ccc1n2CCCCOc1ccc(-c2c3ccccc3c(-c3ccc(OCCCCn4c5ccc(OC)cc5c5cc(OC)ccc54)cc3)c3ccccc23)cc1 | > 100 |  | > 100 | > 100 | > 100 |  |  | > 100 | > 100 |  |  | > 100 | > 100 | > 100 |  |  |  | > 100 | > 100 | > 100
5 | COc1cc2c(cc1OC)CCN=C2 |  | > 100 | > 100 | > 100 | > 100 | > 100 | > 100 | > 100 | > 100 | > 100 | > 100 | > 100 | > 100 | > 100 | > 100 | > 100 | > 100 | > 100 |  | 
